Where two headings read alike, the source gives them in different places.
Target: T1, BACE1 (Homo sapiens, UniProt P56817)
T1 construct: purchased Invitrogen P2985
Test: BACE1 fluorescence resonance energy transfer (FRET) based enzymatic inhibition assay
Format: biochemical
Settings: for Inhibition ratio (100 μM): compound concentration 100 μM, Table 1; for inhibition ratio: ligand concentration of 100 μM; for inhibition at 100 µM: compound concentration 100 µM
Procedure: 3.3. Fluorescence Resonance Energy Transfer (FRET) Based Enzymatic Assay
The BACE1 fluorescence resonance energy transfer assay kit was purchased from Invitrogen (Carlsbad, CA, USA, cat. P2985). BACE1 activity assays were carried out following the manufacturer’s protocol. The enzyme, substrate, and compounds were diluted in a reaction buffer (50 mM sodium acetate, pH 4.5) to make 3× working solutions. The assay was carried out in a black 384-well microplate with a final volume of 30 μL which contains each 10 μL of 3× substrate, enzyme, and compound stocks, respectively. The final concentration of DMSO is less than 3% (v/v). The reaction mixture was incubated at 37 °C for 90 min with oscillation. Then, 10 μL of a stop solution (2.5 M sodium acetate) was added to stop the reaction. Finally, the fluorescent intensity of the enzymatic product was measured at Ex/Em = 535 nm/585 nm on a BioTek SYNERGY4 reader (BioTek, Winooski, VT, USA). Triplicate was run for each assay. IC50 values were calculated from the concentration–inhibition curves by nonlinear regression analysis. Eight concentrations were tested for each compound to produce the concentration–inhibition curve.

T1 sequence (P56817 46-501): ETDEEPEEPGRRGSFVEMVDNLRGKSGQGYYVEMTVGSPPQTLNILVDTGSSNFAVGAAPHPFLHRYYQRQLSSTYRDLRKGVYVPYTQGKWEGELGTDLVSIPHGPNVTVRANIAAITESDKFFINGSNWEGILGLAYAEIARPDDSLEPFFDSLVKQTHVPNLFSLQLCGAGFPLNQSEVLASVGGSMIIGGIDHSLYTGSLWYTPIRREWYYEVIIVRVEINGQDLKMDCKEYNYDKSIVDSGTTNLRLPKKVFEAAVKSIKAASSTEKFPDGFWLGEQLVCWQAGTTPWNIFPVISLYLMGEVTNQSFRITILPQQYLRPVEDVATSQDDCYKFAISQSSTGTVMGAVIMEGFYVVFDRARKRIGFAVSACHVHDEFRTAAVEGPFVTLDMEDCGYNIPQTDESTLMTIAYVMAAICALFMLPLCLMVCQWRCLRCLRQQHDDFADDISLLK

Inhibition ratio (100 μM)	inhibition at 100 µM (Table 2)	Compound	also measured
52.38%	–	N=C(NCc1cc(F)cc(F)c1)NC(=O)Cn1ccc2ccccc21 [Compound 15, N-(N-(3,5-Difluorobenzyl)carbamimidoyl)-2-(1H-indol-1-yl)acetamide]	–
66.51%	–	N=C(NCc1cccc(OC(F)(F)F)c1)NC(=O)Cn1ccc2ccccc21 [Compound 16, 2-(1H-Indol-1-yl)-N-(N-(3-(trifluoromethoxy)benzyl)carbamimidoyl)acetamide]	–
92.2%	–	CC(C)C(=O)Nc1c(Cl)cc(CNC(=N)NC(=O)Cn2ccc3ccccc32)cc1Cl [Compound 21, N-(4-((3-(2-(1H-Indol-1-yl)acetyl)guanidino)methyl)-2,6-dichlorophenyl)isobutyramide]	IC50: 1720 ± 210 nM
–	–	N=C(N)NCCn1ccc2ccccc21 [Compound 4, 1-(2-(1H-indol-1-yl)ethyl)guanidine]	IC50: > 100000 nM; inhibition ratio: about 42%
–	100%	CC(=O)Nc1c(Cl)cc(CNC(N)=NC(=O)Cn2ccc3ccc(CN(C)S(C)(=O)=O)cc32)cc1Cl [Compound 28]	IC50 (Table 2): 840 ± 101 nM
85.24%	–	N=C(NCc1cccc(I)c1)NC(=O)Cn1ccc2ccccc21 [Compound 13, 2-(1H-Indol-1-yl)-N-(N-(3-iodobenzyl)carbamimidoyl)acetamide]	–
–	99.5%	CC(=O)Nc1c(Cl)cc(CNC(=N)NC(=O)Cn2ccc3cc(C#N)ccc32)cc1Cl [Compound 24, N-(N-(4-Acetamido-3,5-dichlorobenzyl)carbamimidoyl)-2-(5-cyano-1H-indol-1-yl)acetamide]	IC50 (Table 2): 57 ± 4 nM
46.8%	–	CCNc1c(Cl)cc(CNC(=N)NC(=O)Cn2ccc3ccccc32)cc1Cl [Compound 20, N-(N-(3,5-Dichloro-4-(ethylamino)benzyl)carbamimidoyl)-2-(1H-indol-1-yl)acetamide]	–
77.00%	–	N=C(N)NC(=O)Cn1ccc2ccccc21 [Compound 5, N-Carbamimidoyl-2-(1H-indol-1-yl)acetamide]	inhibition ratio: 77%
–	103%	COc1ccc2ccn(CC(=O)NC(=N)NCc3cc(Cl)c(NC(C)=O)c(Cl)c3)c2c1 [Compound 27, N-(N-(4-Acetamido-3,5-dichlorobenzyl)carbamimidoyl)-2-(6-methoxy-1H-indol-1-yl)acetamide]	IC50 (Table 2): 224 ± 33 nM
100%	–	N=C(NCc1cc(Cl)cc(Cl)c1)NC(=O)Cn1ccc2ccccc21 [Compound 17, N-(N-(3,5-Dichlorobenzyl)carbamimidoyl)-2-(1H-indol-1-yl)acetamide]	IC50: 8750 ± 1070 nM
35.3%	–	CC(=O)Nc1ccc(CNC(=N)NC(=O)Cn2ccc3ccccc32)cc1 [Compound 18, N-(N-(4-Acetamidobenzyl)carbamimidoyl)-2-(1H-indol-1-yl)acetamide]	–
–	100%	CC(=O)Nc1c(Cl)cc(CNC(=N)NC(=O)Cn2ccc3ccc(Br)cc32)cc1Cl [Compound 23, N-(N-(4-Acetamido-3,5-dichlorobenzyl)carbamimidoyl)-2-(6-bromo-1H-indol-1-yl)acetamide]	IC50 (Table 2): 79 ± 8 nM
58.75%	–	COc1cccc(CNC(=N)NC(=O)Cn2ccc3ccccc32)c1 [Compound 14, 2-(1H-Indol-1-yl)-N-(N-(3-methoxybenzyl)carbamimidoyl)acetamide]	–
40.69%	–	N=C(NCc1ccccc1)NC(=O)Cn1ccc2ccccc21 [Compound 12]	–
100%	100%	CC(=O)Nc1c(Cl)cc(CNC(=N)NC(=O)Cn2ccc3ccccc32)cc1Cl [Compound 19, N-(N-(4-Acetamido-3,5-dichlorobenzyl)carbamimidoyl)-2-(1H-indol-1-yl)acetamide]	IC50: 1010 ± 91 nM
–	109%	CC(=O)Nc1c(Cl)cc(CNC(=N)NC(=O)Cn2ccc3cc(Br)ccc32)cc1Cl [Compound 22, N-(N-(4-Acetamido-3,5-dichlorobenzyl)carbamimidoyl)-2-(5-bromo-1H-indol-1-yl)acetamide]	IC50 (Table 2): 106 ± 13 nM
